Source: PubChem BioAssay AID1259407 (Chemical Carcinogenesis Research Information System (CCRIS), 2018)
Activity calls are given as the source filed them. How the calls were made is not given here.

System: CCRIS mutagenicity, Ames/micronucleus/aberration tests
Assay: CCRIS mutagenicity studies
[1] = Test System: MOUSE LYMPHOMA, Strain/Indicator: L5178Y (TK+/TK-), Metabolic Activation: RAT, LIVER, S-9, AROCLOR 1254, Method: SUSPENSION/PLATE
[2] = Test System: AMES SALMONELLA TYPHIMURIUM, Strain/Indicator: TA100, Metabolic Activation: NONE, Method: STANDARD PLATE
[3] = Test System: AMES SALMONELLA TYPHIMURIUM, Strain/Indicator: TA100, Metabolic Activation: RAT, LIVER, S-9, AROCLOR 1254, Method: STANDARD PLATE
[4] = Test System: AMES SALMONELLA TYPHIMURIUM, Strain/Indicator: TA98, Metabolic Activation: NONE, Method: STANDARD PLATE

## Nc1ccccc1C(=O)O
Test System: AMES SALMONELLA TYPHIMURIUM, Strain/Indicator: TA98, Metabolic Activation: HAMSTER, LIVER, S-9, AROCLOR 1254 (10%), Method: PREINCUBATION
  mutagenic call: inactive; negative
Test System: AMES SALMONELLA TYPHIMURIUM, Strain/Indicator: TA98, Metabolic Activation: NONE, Method: PREINCUBATION
  mutagenic call: inactive; negative
Test System: AMES SALMONELLA TYPHIMURIUM, Strain/Indicator: TA98, Metabolic Activation: RAT, LIVER, S-9, AROCLOR 1254 (10%), Method: PREINCUBATION
  mutagenic call: inactive; negative
Test System: AMES SALMONELLA TYPHIMURIUM, Strain/Indicator: TA100, Metabolic Activation: HAMSTER, LIVER, S-9, AROCLOR 1254 (10%), Method: PREINCUBATION
  mutagenic call: inactive; negative
Test System: AMES SALMONELLA TYPHIMURIUM, Strain/Indicator: TA100, Metabolic Activation: NONE, Method: PREINCUBATION
  mutagenic call: inactive; negative
Test System: AMES SALMONELLA TYPHIMURIUM, Strain/Indicator: TA100, Metabolic Activation: RAT, LIVER, S-9, AROCLOR 1254 (10%), Method: PREINCUBATION
  mutagenic call: inactive; negative
Test System: AMES SALMONELLA TYPHIMURIUM, Strain/Indicator: TA1535, Metabolic Activation: HAMSTER, LIVER, S-9, AROCLOR 1254 (10%), Method: PREINCUBATION
  mutagenic call: inactive; negative
Test System: AMES SALMONELLA TYPHIMURIUM, Strain/Indicator: TA1535, Metabolic Activation: NONE, Method: PREINCUBATION
  mutagenic call: inactive; negative
Test System: AMES SALMONELLA TYPHIMURIUM, Strain/Indicator: TA1535, Metabolic Activation: RAT, LIVER, S-9, AROCLOR 1254 (10%), Method: PREINCUBATION
  mutagenic call: inactive; negative
Test System: AMES SALMONELLA TYPHIMURIUM, Strain/Indicator: TA1537, Metabolic Activation: HAMSTER, LIVER, S-9, AROCLOR 1254 (10%), Method: PREINCUBATION
  mutagenic call: inactive; negative
Test System: AMES SALMONELLA TYPHIMURIUM, Strain/Indicator: TA1537, Metabolic Activation: NONE, Method: PREINCUBATION
  mutagenic call: inactive; negative
Test System: AMES SALMONELLA TYPHIMURIUM, Strain/Indicator: TA1537, Metabolic Activation: RAT, LIVER, S-9, AROCLOR 1254 (10%), Method: PREINCUBATION
  mutagenic call: inactive; negative
Test System: CHINESE HAMSTER OVARY, Strain/Indicator: CHO-K1-BH4 (HGPRT)/6-THIOGUANINE, Metabolic Activation: NONE
  mutagenic call: inactive; negative
Test System: CHINESE HAMSTER OVARY, Strain/Indicator: CHO-K1-BH4 (HGPRT)/6-THIOGUANINE, Metabolic Activation: S-9
  mutagenic call: inactive; negative
[1]
  mutagenic call: active; positive
Test System: Mouse lymphoma, Strain/Indicator: L5178Y (tk+/tk-), Metabolic Activation: None, Method: Suspension/plate
  mutagenic call: inactive; negative
Test System: Mouse lymphoma, Strain/Indicator: L5178Y (tk+/tk-), Metabolic Activation: Rat, Liver, S-9, Aroclor 1254, Method: Suspension/plate
  mutagenic call: active; positive

## N[C@H](CS)C(=O)O
Test System: AMES SALMONELLA TYPHIMURIUM, Strain/Indicator: TA92, Metabolic Activation: NONE, Method: STANDARD PLATE
  mutagenic call: inactive; negative
Test System: AMES SALMONELLA TYPHIMURIUM, Strain/Indicator: TA92, Metabolic Activation: RAT, KIDNEY, S-9, Method: STANDARD PLATE
  mutagenic call: inactive; negative
Test System: AMES SALMONELLA TYPHIMURIUM, Strain/Indicator: TA92, Metabolic Activation: RAT, LIVER, S-9, Method: STANDARD PLATE
  mutagenic call: inactive; negative
[2]
  mutagenic call: inactive; negative
Test System: AMES SALMONELLA TYPHIMURIUM, Strain/Indicator: TA100, Metabolic Activation: RAT, KIDNEY, S-9, Method: STANDARD PLATE
  mutagenic call: inactive; negative
Test System: AMES SALMONELLA TYPHIMURIUM, Strain/Indicator: TA100, Metabolic Activation: RAT, LIVER, S-9, Method: STANDARD PLATE
  mutagenic call: inactive; negative

## C1=Cc2c(ccc3ccc4ccccc4c23)C1
[3]
  mutagenic call: active; positive

## NC(=O)/N=N/C(N)=O
Test System: AMES SALMONELLA TYPHIMURIUM, Strain/Indicator: TA98, Metabolic Activation: HAMSTER, LIVER, S-9, AROCLOR 1254, Method: STANDARD PLATE
  mutagenic call: inactive; negative
[4]
  mutagenic call: inactive; negative
Test System: AMES SALMONELLA TYPHIMURIUM, Strain/Indicator: TA98, Metabolic Activation: RAT, LIVER, S-9, AROCLOR 1254, Method: STANDARD PLATE
  mutagenic call: inactive; negative
Test System: AMES SALMONELLA TYPHIMURIUM, Strain/Indicator: TA100, Metabolic Activation: HAMSTER, LIVER, S-9, AROCLOR 1254, Method: STANDARD PLATE
  mutagenic call: active; positive
[2]
  mutagenic call: active; positive
[3]
  mutagenic call: active; positive
Test System: MOUSE LYMPHOMA, Strain/Indicator: L5178Y (TK+/TK-), Metabolic Activation: NONE, Method: SUSPENSION/PLATE
  mutagenic call: inactive; negative. reevaluation of results: inconclusive
[1]
  mutagenic call: inactive; negative. reevaluation of results: negative

## O=[N+]([O-])c1cc2[nH]c3ccc4c(O)cccc4c3c2c2ccccc12
[4]
  mutagenic call: active; positive
Test System: AMES SALMONELLA TYPHIMURIUM, Strain/Indicator: TA98, Metabolic Activation: RAT, LIVER, S-9, 3-METHYLCHOLANTHRENE, Method: STANDARD PLATE
  mutagenic call: active; positive
[2]
  mutagenic call: active; positive
Test System: AMES SALMONELLA TYPHIMURIUM, Strain/Indicator: TA100, Metabolic Activation: RAT, LIVER, S-9, 3-METHYLCHOLANTHRENE, Method: STANDARD PLATE
  mutagenic call: active; positive
